Converted amounts (≈) assume the structure as drawn.
Test system: P. falciparum K1 strain (Thailand resistant to chloroquine)
Test: semiautomated microdilution assay, [3H]-hypoxanthine incorporation, K1 strain
Type: cell-based, Plasmodium falciparum
Details: K1 strain, 72 h incubation
Procedure, shortened: (§1)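 Intraerythrocytic stages from unsynchronised stock cultures are exposed to test compounds in a semiautomated microdilution format, and fifty percent inhibitory concentrations are then fitted by logit regression.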

Point of comparison: `N=C(N)NN=C1CCC2(CC1)OOC1(O2)C2CC3CC(C2)CC1C3` (stereo not drawn) [OZ172], “IC50 (ng/ml) K1” value 3.5 ng/mL (≈ 10.5 nM). Against it:
- c1ccc(C2(c3ccccc3)OOC3(O2)C2CC4CC(C2)CC3C4)cc1 (stereo not drawn) [OZ42] — 1.5-fold lower, 2.3 ng/mL (≈ 6.6 nM)
- CC1(C)CC(NC2CCC3(CC2)OOC2(O3)C3CC4CC(C3)CC2C4)CC(C)(C)N1 (stereo not drawn) [OZ171] — 2.7-fold lower, 1.3 ng/mL (≈ 3.11 nM)
- Clc1ccc2c(NCCNC3CCC4(CC3)OOC3(O4)C4CC5CC(C4)CC3C5)ccnc2c1 (stereo not drawn) [OZ258] — 1.7-fold higher, 5.8 ng/mL (≈ 12 nM)
- c1ccc(CC2(Cc3ccccc3)OOC3(O2)C2CC4CC(C2)CC3C4)cc1 (stereo not drawn) [OZ52] — within 1.5-fold, 3.1 ng/mL (≈ 8.23 nM)
- CCOC(=O)CCC1CCCCC12OOC1(CCCCC1)O2 (stereo not drawn) [OZ07] — 19-fold higher, 66 ng/mL (≈ 211 nM)

Test system: ANKA strain of P. berghei
Test: single dose STI in vivo screen in infected mice
Parameters: species or system Plasmodium berghei
Details: percent reduction in parasitemia day 3 post-infection; single 10 mg/kg po in 3% ethanol and 7% Tween 80; mice
Procedure, shortened: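 Groups of 3-5 Moro SPF or NMRI mice infected with the ANKA strain of P. berghei received a single dose of trioxolane on day one post-infection. The compound was given in 3% ethanol and 7% Tween 80 or in SSV (0.5% w/v CMC, 0.5% v/v benzyl alcohol, 0.4% v/v Tween 80, 0.9% w/v sodium chloride in water). Antimalarial activity was scored as percent reduction in parasitemia on day three and as survival time versus untreated controls. Survival to day 30 counted as cure.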

Point of comparison: `c1ccc(C2(c3ccccc3)OOC3(O2)C2CC4CC(C2)CC3C4)cc1` (stereo not drawn) [OZ42], “Activity (%) po” value 68%. Against it:
- N=C(N)NN=C1CCC2(CC1)OOC1(O2)C2CC3CC(C2)CC1C3 (stereo not drawn) [OZ172] — the same, 68%
- CC1(C)CC(NC2CCC3(CC2)OOC2(O3)C3CC4CC(C3)CC2C4)CC(C)(C)N1 (stereo not drawn) [OZ171] — higher, 98%
- Clc1ccc2c(NCCNC3CCC4(CC3)OOC3(O4)C4CC5CC(C4)CC3C5)ccnc2c1 (stereo not drawn) [OZ258] — higher, 75%
- c1ccc(CC2(Cc3ccccc3)OOC3(O2)C2CC4CC(C2)CC3C4)cc1 (stereo not drawn) [OZ52] — higher, 88%

In the case of `CCOC(=O)CCC1CCCCC12OOC1(CCCCC1)O2` (stereo not drawn) [OZ07], the “Activity (%) po” value is reported as 0/NA/0^1%.

Same assay, conditions: percent reduction in parasitemia day 3 post-infection; single 10 mg/kg sc in 3% ethanol and 7% Tween 80; mice

Point of comparison: `c1ccc(CC2(Cc3ccccc3)OOC3(O2)C2CC4CC(C2)CC3C4)cc1` (stereo not drawn) [OZ52], “Activity (%) sc” value 99.7%. Against it:
- c1ccc(C2(c3ccccc3)OOC3(O2)C2CC4CC(C2)CC3C4)cc1 (stereo not drawn) [OZ42] — lower, 92%
- N=C(N)NN=C1CCC2(CC1)OOC1(O2)C2CC3CC(C2)CC1C3 (stereo not drawn) [OZ172] — higher, 100%
- CC1(C)CC(NC2CCC3(CC2)OOC2(O3)C3CC4CC(C3)CC2C4)CC(C)(C)N1 (stereo not drawn) [OZ171] — higher, 99.94%
- Clc1ccc2c(NCCNC3CCC4(CC3)OOC3(O4)C4CC5CC(C4)CC3C5)ccnc2c1 (stereo not drawn) [OZ258] — higher, 99.95%

In the case of `CCOC(=O)CCC1CCCCC12OOC1(CCCCC1)O2` (stereo not drawn) [OZ07], the “Activity (%) sc” value is reported as 0/NA/0^1%.

Same assay, conditions: percent reduction in parasitemia day 3 post-infection; single po dose in standard suspending vehicle (SSV); mice

Point of comparison: `Clc1ccc2c(NCCNC3CCC4(CC3)OOC3(O4)C4CC5CC(C4)CC3C5)ccnc2c1` (stereo not drawn) [OZ258], “Activity (%) SSVpo” value 70%. Against it:
- N=C(N)NN=C1CCC2(CC1)OOC1(O2)C2CC3CC(C2)CC1C3 (stereo not drawn) [OZ172] — higher, 82%
- CC1(C)CC(NC2CCC3(CC2)OOC2(O3)C3CC4CC(C3)CC2C4)CC(C)(C)N1 (stereo not drawn) [OZ171] — higher, 85%

Same assay, conditions: single 10 mg/kg po in 3% ethanol and 7% Tween 80; untreated control 5.6 ± 0.3

Point of comparison: `CC1(C)CC(NC2CCC3(CC2)OOC2(O3)C3CC4CC(C3)CC2C4)CC(C)(C)N1` (stereo not drawn) [OZ171], “Survival (days) po” value 9.0 days. Against it:
- c1ccc(C2(c3ccccc3)OOC3(O2)C2CC4CC(C2)CC3C4)cc1 (stereo not drawn) [OZ42] — lower, 6.0 days
- N=C(N)NN=C1CCC2(CC1)OOC1(O2)C2CC3CC(C2)CC1C3 (stereo not drawn) [OZ172] — lower, 8.0 days
- Clc1ccc2c(NCCNC3CCC4(CC3)OOC3(O4)C4CC5CC(C4)CC3C5)ccnc2c1 (stereo not drawn) [OZ258] — lower, 6.0 days
- c1ccc(CC2(Cc3ccccc3)OOC3(O2)C2CC4CC(C2)CC3C4)cc1 (stereo not drawn) [OZ52] — lower, 6.7 days
- CCOC(=O)CCC1CCCCC12OOC1(CCCCC1)O2 (stereo not drawn) [OZ07] — lower, 6.0 days

Same assay, conditions: single 10 mg/kg sc in 3% ethanol and 7% Tween 80; untreated control 5.6 ± 0.3

Point of comparison: `c1ccc(C2(c3ccccc3)OOC3(O2)C2CC4CC(C2)CC3C4)cc1` (stereo not drawn) [OZ42], “Survival (days) sc” value 7.0 days. Against it:
- N=C(N)NN=C1CCC2(CC1)OOC1(O2)C2CC3CC(C2)CC1C3 (stereo not drawn) [OZ172] — higher, 10.3 days
- CC1(C)CC(NC2CCC3(CC2)OOC2(O3)C3CC4CC(C3)CC2C4)CC(C)(C)N1 (stereo not drawn) [OZ171] — higher, 9.7 days
- Clc1ccc2c(NCCNC3CCC4(CC3)OOC3(O4)C4CC5CC(C4)CC3C5)ccnc2c1 (stereo not drawn) [OZ258] — higher, 10.7 days
- c1ccc(CC2(Cc3ccccc3)OOC3(O2)C2CC4CC(C2)CC3C4)cc1 (stereo not drawn) [OZ52] — higher, 8.0 days
- CCOC(=O)CCC1CCCCC12OOC1(CCCCC1)O2 (stereo not drawn) [OZ07] — lower, 5.7 days

Same assay, conditions: single po dose in SSV; untreated control 5.6 ± 0.3

Point of comparison: `Clc1ccc2c(NCCNC3CCC4(CC3)OOC3(O4)C4CC5CC(C4)CC3C5)ccnc2c1` (stereo not drawn) [OZ258], “Survival (days) SSVpo” value 6.0 days. Against it:
- N=C(N)NN=C1CCC2(CC1)OOC1(O2)C2CC3CC(C2)CC1C3 (stereo not drawn) [OZ172] — higher, 10.3 days
- CC1(C)CC(NC2CCC3(CC2)OOC2(O3)C3CC4CC(C3)CC2C4)CC(C)(C)N1 (stereo not drawn) [OZ171] — higher, 7.0 days

Test system: P. falciparum NF54 strain (sensitive to standard antimalarials)
Test: semiautomated microdilution assay, [3H]-hypoxanthine incorporation, NF54 strain
Type: cell-based, Plasmodium falciparum
Details: NF54 strain, 72 h incubation
Procedure, shortened: as §1

Point of comparison: `Clc1ccc2c(NCCNC3CCC4(CC3)OOC3(O4)C4CC5CC(C4)CC3C5)ccnc2c1` (stereo not drawn) [OZ258], “IC50 (ng/ml) NF54” value 5.2 ng/mL (≈ 10.7 nM). Against it:
- c1ccc(C2(c3ccccc3)OOC3(O2)C2CC4CC(C2)CC3C4)cc1 (stereo not drawn) [OZ42] — 2-fold lower, 2.6 ng/mL (≈ 7.46 nM)
- N=C(N)NN=C1CCC2(CC1)OOC1(O2)C2CC3CC(C2)CC1C3 (stereo not drawn) [OZ172] — within 1.5-fold, 5.0 ng/mL (≈ 15 nM)
- CC1(C)CC(NC2CCC3(CC2)OOC2(O3)C3CC4CC(C3)CC2C4)CC(C)(C)N1 (stereo not drawn) [OZ171] — 3.7-fold lower, 1.4 ng/mL (≈ 3.34 nM)
- c1ccc(CC2(Cc3ccccc3)OOC3(O2)C2CC4CC(C2)CC3C4)cc1 (stereo not drawn) [OZ52] — 1.7-fold lower, 3.0 ng/mL (≈ 7.97 nM)
- CCOC(=O)CCC1CCCCC12OOC1(CCCCC1)O2 (stereo not drawn) [OZ07] — 9.4-fold higher, 49 ng/mL (≈ 157 nM)

Source: patent US6906205B2, “Spiro and dispiro 1,2,4-trioxolane antimalarials” (Medicines for Malaria Venture MMV, priority 2002, dated 2005)
